# Laboratory results: paper PMC6856805, “Environmental Risk Assessment for the Active Pharmaceutical Ingredient Mycophenolic Acid in European Surface Waters” (Environmental Toxicology and Chemistry, 2019)
# What was measured:
# [1] = River sediment/water fate test (US FDA Guideline 3.11) with 14C-MPM; conditions: all systems and dosings
# Procedure: A river sediment/water fate test with two different ^14C-MPMs (one carboxyl-^14C-labelled, the other morpholine-^14C-labelled) was commissioned in 1994 by Syntex according to US FDA Guideline 3.11 in compliance with GLP (Yan 1995). Both carboxyl-^14C-labelled and morpholine-^14C-labelled MPM were tested separately for biodegradability in river water and sediment at dosing concentrations of 1 and 5 mg MPM/L, in parallel test set-ups in the dark at 21±1 °C over 64 days. Air was drawn in flow-through systems first through a 2 N KOH vessel to remove natural CO2, then through the test vessel and subsequently through two sequential 2 N KOH traps for ^14CO2 capture. Samples from the latter traps were taken for duplicate ^14CO2 analysis by LSC on days 1, 2, 3, 7, 14, 21, 28, 35, 49 and 64. Test medium samples for HPLC analysis were taken on days 0.01 (15 min after dosing), 1, 3, 7, 14, 21, 35, 49 and 64. Sediment samples were taken at the end for combustion and ^14CO2 analysis.
# [2] = OECD test guideline 301F ready biodegradability test
# humans = test: Derivation of acceptable daily exposure (ADE); set-up: species or system human
# Procedure: Similarly, potential risk for humans from secondary poisoning is assessed by using the acceptable daily exposure (ADE) value for MPA (T. Pfister, unpublished data), which considers toxicological data as well as human experience and covers all routes of uptake, including sensitive subpopulations, over 365 d/annum, with the combined worst‐case uptake through drinking water and fish. No removal of MPA in drinking water production is assumed, but a default intake of 2 L water and 115 g fish/person and day is assumed (European Commission 2011; Murray‐Smith et al. 2012). This combined uptake is then compared with the ADE.
# The ADE was derived based on the available nonclinical and clinical data, with the critical effects identified as 1) immunosuppression and secondary effects thereof and 2) teratogenicity; in addition, the relevance of positive results in genotoxicity tests was assessed (T. Pfister, unpublished data). Based on the NOAEL of 2 mg/kg body weight/d in the 12‐mo oral toxicity study in the rat, an ADE was derived by multiplying this NOAEL by a default body weight of 60 kg for humans and dividing by adjustment factors, namely, 6.2 for extrapolation from rats to humans, 10 for variability between individuals, 1 for study duration of 1 yr for rodents, 5 for severity of systemic toxicity (hematopoiesis, immunotoxicity), and 3 for use of an established NOAEL instead of an NOEL; this derivation results in a first ADE of 0.1 mg MPM/60‐kg person/d. […] The weak clastogenic potential observed at higher doses was considered to be irrelevant at these exposure levels. Because the first ADE was lower than, and therefore also protective of, the second, 0.1 mg MPM/60‐kg person/d was selected as the ADE. Stoichiometrically, this ADE for MPM corresponds to 0.0739 mg MPA/d, which was rounded to 0.075 mg or 75 µg MPA/d. The MTDI for an otter was derived by normalizing the ADE for a 60‐kg human to the otter with a default body mass of 10 kg, resulting in an MTDI of 0.0125 mg or 12.5 µg MPA/10‐kg otter/d.
# [3] = set-up: method as in T. Pfister, unpublished data; conditions: ref T. Pfister, unpublished data, cited from earlier work
# mice = system: mice; set-up: method as in T. Pfister, unpublished data; conditions: oral, 104 wk at 25, 75, or 180 mg/kg body weight/d, ref T. Pfister, unpublished data; cited from earlier work
# rats [4] = system: rats; set-up: method as in T. Pfister, unpublished data; conditions: at least 104 wk at 3, 7, or 15 mg/kg body weight/d, ref T. Pfister, unpublished data; cited from earlier work
# rats [5] = system: rats; set-up: method as in T. Pfister, unpublished data; conditions: oral, ref T. Pfister, unpublished data; cited from earlier work
# rabbits = system: rabbits; set-up: method as in T. Pfister, unpublished data; conditions: oral, ref T. Pfister, unpublished data; cited from earlier work
# [6] = system: lymphocyte and erythrocyte systems; set-up: method as in T. Pfister, unpublished data; conditions: ref T. Pfister, unpublished data; cited from earlier work
# [7] = system: mice with large cell lymphoma; set-up: method as in T. Pfister, unpublished data; conditions: ref T. Pfister, unpublished data; cited from earlier work
# [8] = set-up: method as in Lee et al. 1990; Shipkova et al. 2005; conditions: in the liver and intestine; ref Lee et al. 1990; Shipkova et al. 2005; cited from earlier work
# rat = conditions: in vivo, po; cited from earlier work
# rats [9] = conditions: cited from earlier work
# [10] = OECD test guideline 314B activated sludge biodegradation simulation test
# Source text: Mineralization comprises evolved CO2 (detected in the traps) as well as CO2 dissolved in the sludge. The latter was highest at day 2 and decreased afterward, whereas the amount of evolved CO2 increased continuously until the end of the study. […] At no time point was a noteworthy amount of radioactivity (>2% iRR throughout the test period) detected in the liquor after extraction. Radioactivity in the solids extract was highest at day 0 (5.5% iRR) and decreased afterward to 0.3% iRR after 28 d.
# Based on this k biodeg and physicochemical properties for MPA, SimpleTreat 4.0 (Struijs 2015) calculated a removal of 12% in STPs, mostly through biodegradation (0.27% in the primary settler and 11.5% in the aeration tank), with a small fraction of 0.13% adsorbed to sludge, in agreement with the OECD test guideline106 (Organisation for Economic Co‐operation and Development 2000) adsorption results mentioned in the previous paragraph (V. Halász‐Laky, unpublished data). […] A high degradation rate is supported by data from Franquet‐Griell et al. (2017b), who measured STP influents and effluents and compared solid phase extraction and macroporous ceramic passive samplers in Spain. […]
# D. magna = system: D. magna; set-up: method as in FASS 2018; conditions: OECD 202; ref FASS 2018; cited from earlier work
# Cyprinus carpio = system: Cyprinus carpio; set-up: method as in FASS 2018; conditions: OECD 203; ref FASS 2018; cited from earlier work
# [11] = set-up: method as in FASS 2018; conditions: OECD 209; ref FASS 2018; cited from earlier work
structure (smiles),measurement,setting,value
"COc1c(C)c2c(c(O)c1C/C=C(\C)CCC(=O)OCCN1CCOCC1)C(=O)OC2 [MPM, mycophenolate mofetil]",time to full primary degradation,[1],≤ 7 days
same,inhibition of activated sludge activity,[2]; nominal 100 mg MPM/L,no inhibition
same,ready biodegradability result,[2]; nominal 100 mg/L,primary degradation by HPLC without oxygen uptake
same,first ADE (selected as the ADE),humans; from rat 12‐mo NOAEL,0.1 mg MPM/60‐kg person/d
same,second ADE,humans; from rat teratogenicity NOEL,0.19 mg MPM/60‐kg person/d
same,clastogenicity,"[3]; extended exposure, only at highly cytotoxic dose levels",possesses a clastogenic potential
same,point mutations or primary DNA damage,[3]; presence or absence of metabolic activation,did not induce point mutations or primary DNA damage
same,carcinogenicity,mice,not carcinogenic
same,carcinogenicity,rats [4],not carcinogenic
same,no‐observed‐effect level (NOEL) for teratogenic changes,rats [5],2 mg/kg body weight/d
same,no‐observed‐effect level (NOEL) for teratogenic changes,rabbits,30 mg/kg body weight/d
same,in vitro antitumour effects,[6],in vitro antitumour effects
same,survival times,[7],prolonged survival times
same,hydrolysis of prodrug,[8],rapidly and fully hydrolyzed to MPA
same,no‐observed‐adverse‐effect level (NOAEL),rat,2 mg/kg body weight/d
same,dose causing malformations in the pups in the absence of maternal toxicity,"rats [9]; highest dose, oral, rats, ref T. Pfister, unpublished data",4.5 mg/kg body weight/d
same,"NOAEL, female fertility and reproduction study","rats [9]; rat, in vivo, po",1.5 mg/kg body weight/d
same,effect on fertility,"rats [9]; rats, oral, ref T. Pfister, unpublished data",no effect on fertility
"COc1c(C)c2c(c(O)c1C/C=C(\C)CCC(=O)O)C(=O)OC2 [^14C‐MPA, Mycophenolic acid, [carboxyl‐14C]]",degradation in activated sludge,[10],> 80%
COc1c(C)c2c(c(O)c1C/C=C(\C)CCC(=O)[O-])C(=O)OC2.[Na+] [sodium‐MPA],acute daphnid EC50,D. magna,> 100 mg/L
same,acute fish 50% lethal concentration (LC50),Cyprinus carpio,> 100 mg/L
same,"3‐h EC50, respiration inhibition",[11],2213 mg/L
same,"EC10, respiration inhibition",[11],69 mg/L
